# According to patent US8828992B2, “Substituted azole derivatives, pharmaceutical composition containing the derivatives, and method for treating Parkinson's disease using the same” (priority 2009, dated 2014):
# Like-named read-outs stand apart in the source and are kept apart here.
# Key:
# [1] = target: T1, Monoamineoxidase B type human-derived enzyme (Homo sapiens, UniProt P27338); assay: Inhibitory effects on the activity of MAO-B (Amplex Red fluorescence, benzylamine substrate); type: biochemical; settings: for inhibition at 0.01 µM: read-out: Inhibitory effects (%) on the activity of MAO-B; for inhibition at 0.1 µM: treatment concentration 100 nM
# T1 sequence (P27338 1-520): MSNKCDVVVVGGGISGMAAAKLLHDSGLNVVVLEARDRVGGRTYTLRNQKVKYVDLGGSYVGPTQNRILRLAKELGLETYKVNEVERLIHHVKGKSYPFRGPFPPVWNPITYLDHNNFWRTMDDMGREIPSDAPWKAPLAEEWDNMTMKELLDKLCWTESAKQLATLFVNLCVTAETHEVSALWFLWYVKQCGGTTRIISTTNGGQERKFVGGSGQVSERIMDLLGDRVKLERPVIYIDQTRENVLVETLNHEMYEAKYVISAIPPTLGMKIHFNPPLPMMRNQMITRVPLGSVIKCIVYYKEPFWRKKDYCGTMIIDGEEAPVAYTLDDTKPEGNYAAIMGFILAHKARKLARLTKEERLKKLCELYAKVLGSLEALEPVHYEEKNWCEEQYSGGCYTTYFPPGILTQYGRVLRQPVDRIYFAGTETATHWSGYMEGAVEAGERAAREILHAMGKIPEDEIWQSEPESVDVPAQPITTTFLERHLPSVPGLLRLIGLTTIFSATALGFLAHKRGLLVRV
# Method: Monoamineoxidase A or B type human-derived enzyme (5 mg/ml) was each diluted with 0.05 M sodium phosphate buffer (pH 7.4) to yield a dilution of 1:200, and then 100 μl of an enzyme buffer containing 2 μl of a compound 1 solution at the corresponding concentration was placed in a test plate (flat-bottom) and incubated for 30 minutes.
# 100 μl of a working buffer containing 400 μM of Amplex Red reagent, 2 U/ml horseradish peroxidase, and 2 mM substrate (tyramine for MAO-A and benzylamine for MAO-B) in 0.05 M sodium phosphate buffer (pH 7.4) was mixed with a pre-incubated enzyme buffer at 1:1 and measured using fluorescence (EX: 563 nm & EM: 587 nm) for 30 minutes.
# [2] = test system: dopamine (DA) in the striatum of a MPTP-treated mouse; assay: Combined administration with Levodopa group: dopamine in the striatum of MPTP-treated mouse (HPLC); type: in vivo; settings: compound 1 mg/kg PO co-administered with Levodopa group (Levodopa 50 mg/kg + Benzerazide 25 mg/kg IP); for Concentration of dopamine compared to a control group %, 1 hr: 1 hr after Levodopa; for Concentration of dopamine compared to a control group %, 3 hr: 3 hr after Levodopa
# Method: MPTP (20 mg/kg, free base; Sigma, St. louis, Mo.) was administered to an 8 week old (20-25 g) male C57BL/6 test mouse intraperitoneally at the interval of 2 hours to construct a model.
# In order to observe the effects of combined administration of a compound of the present invention and Levodopa, the compound of the present invention was dissolved in a solution containing 0.02 ml of dimethylsulfoxide (DMSO), 0.02 ml of Cremophor, 0.08 ml of polyethyleneglycol (PEG), and 0.08 ml of physiological saline. The resulting solution was orally administered at doses of 1 mg/kg one week after the MPTP treatment, and a Levodopa group containing Levodopa at 50 mg/kg and Benzerazide at 25 mg/kg was intraperitoneally administered 1 hour later.
# A single administration of the Levodopa group in the following Table 4 indicates values resulting from a MPTP (toxin) treatment followed by an administration of the Levodopa group compared to the treatment results of a Levodopa single administration group of Levodopa and Benzerazide.
# At 1 hour and 3 hours after administration of Levodopa, the animals were sacrificed by cervical vertebra dislocation and the brain tissues were immediately isolated from the animals. 0.5 me of iced solution for HPLC analysis (0.1 M perchloric acid and 0.1 mM EDTA) was added to a striatum obtained from the isolated brain tissues, and an ultrasonic grinder was used to prepare a tissue homogenate. The tissue homogenate was centrifuged at 12,000 rpm for 15 minutes, and its supernatant was filtered through nitrocellulose membrane filter (0.2 um, Millipore). For HPLC analysis, uBondapak™ C18 column (4.6×150 mm, particle size 10 μm: Shisheido, Japan) was used, the flow rate of the mobile phase (0.07 M monobasic sodium phosphate, 1 mM sodium octasulfonic acid, 0.1 uM EDTA, 5% acetonitrile, pH 3.2) was maintained at 0.5 me/min, and the electrode potential of the electrochemical detector (CouloChem III, ESA, Japan) was set at 350 mV.
inhibition at 0.01 µM ([1]; treatment concentration 10 nM) [%],Structure (SMILES),other results
,"NC(=O)OCc1nc(-c2ccc(OCc3ccccc3)cc2)no1 [Example 2, carbamic acid 3-(4-benzyloxy-phenyl)-[1,2,4]oxadiazol-5-ylmethyl ester]","inhibition at 0.01 µM [1]: 95%; Concentration of dopamine compared to a control group %, 1 hr [2]: 106.12%; Concentration of dopamine compared to a control group %, 3 hr [2]: 43.6%"
96.5,"NC(=O)OCc1cc(-c2ccc(OCc3cc(F)cc(F)c3)cc2)no1 [Example 16, carbamic acid 3-[4-(3,5-difluoro-benzyloxy)-phenyl]-isoxazol-5-ylmethyl ester]",
63.4,"COc1c(C)cc(COc2ccc(-c3cc(COC(N)=O)on3)cc2)nc1C [Example 68, Carbamic acid 3-[4-(5-methoxy-4,6-dimethyl-pyridin-2-ylmethoxy)-phenyl]-isoxazol-5-ylmethyl ester]",
,"NC(=O)OCc1cc(-c2ccc(OCc3ccc(C(F)(F)F)cc3)cc2)no1 [Example 202, carbamic acid 3-[4-(4-trifluoromethyl-benzyloxy)-phenyl]-isoxazol-5-ylmethyl ester]",inhibition at 0.1 µM [1]: 95.5%
81.7,"C#CCNCc1cc(-c2ccc(OCc3ccccc3)cc2)no1 [Example 119, [3-(4-benzyloxy-phenyl)-isoxazol-5-ylmethyl]-prop-2-ynyl-amine]",
75.2,"NC(=O)OCc1cc(-c2ccc(NCc3ccc(Cl)c(Cl)c3)cc2)no1 [Example 92, carbamic acid 3-[4-(3,4-dichloro-benzylamino)-phenyl]-isoxazol-5-ylmethyl ester]",
86,"NC(=O)OCc1cc(-c2ccc(OCc3ccc(Cl)cc3)cc2)no1 [Example 22, carbamic acid 3-[4-(4-chloro-benzyloxy)-phenyl]-isoxazol-5-ylmethyl ester]",
39.1,"NC(=O)OC1CCN(Cc2cc(-c3ccc(OCc4ccccc4)cc3)no2)CC1 [Example 138, Carbamic acid 1-[3-(4-benzyloxy-phenyl)-isoxazol-5-ylmethyl]-piperidin-4-yl ester]",
,"CC(C)(C)[N+]([O-])=Cc1cccc(COc2ccc(-c3cc(COC(N)=O)on3)cc2)c1 [Example 204, carbamic acid 3-{4-[3-(t-butylnitronyl)-benzyloxy]-phenyl}-isoxazol-5-ylmethyl ester]",Inhibitory effects (%) on the activity of MAO-B ([1]; treatment concentration 10 nM): 98.8%
102,"NC(=O)OCc1cc(-c2ccc(OCc3ccc(F)cc3)cc2)no1 [Example 13, carbamic acid 3-[4-(4-fluoro-benzyloxy)-phenyl]-isoxazol-5-ylmethyl ester]",
74.5,"Fc1ccc(COc2ccc(-c3cc(Cn4ccnc4)on3)cc2)cc1 [Example 156, 3-[4-(4-fluoro-benzyloxy)-phenyl]-5-imidazol-1-ylmethyl-isoxazole]",
37.2,"Clc1ccc(COc2ccc(-c3cc(Cn4ccnc4)on3)cc2)cc1 [Example 157, 3-[4-(4-chloro-benzyloxy)-phenyl]-5-imidazol-1-ylmethyl-isoxazole]",
,"NC(=O)OCc1cc(-c2ccc(OCc3cccc(C(F)(F)F)c3)cc2)no1 [Example 31, Carbamic acid 3-[4-(3-trifluoromethyl-benzyloxy)-phenyl]-isoxazol-5-ylmethyl ester]",inhibition at 0.1 µM [1]: 96.2%
96.8,"NC(=O)OCc1cc(-c2ccc(OCc3ccc(F)c(F)c3)cc2)no1 [Example 17, carbamic acid 3-[4-(3,4-difluoro-benzyloxy)-phenyl]-isoxazol-5-ylmethyl ester]",
,"CCCCCOc1ccc(-c2cc(COC(N)=O)on2)cc1 [Example 44, carbamic acid 3-(4-pentoxy-phenyl)-isoxazol-5-ylmethyl ester]",inhibition at 0.01 µM [1]: 74.3%
84.6,"c1ccc(COc2ccc(-c3cc(Cn4ccnc4)on3)cc2)cc1 [Example 139, 3-(4-benzyloxy-phenyl)-5-imidazol-1-ylmethyl-isoxazole]",
83.2,"NC(=O)OCc1cc(-c2ccc(OCc3c(F)cccc3Cl)cc2)no1 [Example 199, Carbamic acid 3-[4-(2-chloro-6-fluorobenzyloxy)-phenyl]-isoxazol-5-ylmethyl ester]",
75.9,"NC(=O)OCc1cc(-c2ccc(OCc3ccccc3)c(Cl)c2)no1 [Example 7, carbamic acid 3-(4-benzyloxy-3-chloro-phenyl)-isoxazol-5-ylmethyl ester]",

Structure (SMILES),inhibition at 0.01 µM ([1]; treatment concentration 10 nM) [%],other results
"NC(=O)CNCc1cc(-c2ccc(OCc3ccccc3)cc2)no1 [Example 162, 2-{[3-(4-benzyloxy-phenyl)-isoxazol-5-ylmethyl]-amino}-acetamide]",66.1,"Concentration of dopamine compared to a control group %, 1 hr [2]: 148.3%; Concentration of dopamine compared to a control group %, 3 hr [2]: 100.1%"
"O=C(OCc1cc(-c2ccc(OCc3ccccc3)cc2)no1)n1ccnc1 [Example 120, Imidazole-1-carboxylic acid 3-(4-benzyloxy-phenyl)-isoxazol-5-ylmethyl ester]",87.8,"Concentration of dopamine compared to a control group %, 1 hr [2]: 148.5%; Concentration of dopamine compared to a control group %, 3 hr [2]: 53.9%"
"NCCCNC(=O)OCc1cc(-c2ccc(OCc3ccccc3)cc2)no1 [Example 130, (3-amino-propyl)-carbamic acid 3-(4-benzyloxy-phenyl)-isoxazol-5-ylmethyl ester]",52.9,"Concentration of dopamine compared to a control group %, 1 hr [2]: 131.9%; Concentration of dopamine compared to a control group %, 3 hr [2]: 77.0%"
"O=C(OCc1cc(-c2ccc(OCc3ccccc3)cc2)no1)N1CCOCC1 [Example 127, morpholine-4-carboxylic acid 3-(4-benzyloxy-phenyl)-isoxazol-5-ylmethyl ester]",45.3,"Concentration of dopamine compared to a control group %, 1 hr [2]: 140.7%; Concentration of dopamine compared to a control group %, 3 hr [2]: 60.4%"
"NC(=O)NCc1cc(-c2ccc(OCc3ccccc3)cc2)no1 [Example 152, [3-(4-benzyloxy-phenyl)-isoxazol-5-ylmethyl]-urea]",96.1,"Concentration of dopamine compared to a control group %, 1 hr [2]: 87.0%; Concentration of dopamine compared to a control group %, 3 hr [2]: 77.0%"
